This note sets out measurements from US7259266B2, “Benzopyran compounds useful for treating inflammatory conditions” (Pharmacia Corporation, priority 2003, dated 2007).

Several values for one entry are separate records, joined by “and”; a condition that tells them apart may be missing. Equal values may be shown once. A value given as a limit tells only on which side of the number the result lay.

The target in experiment [1] is T1, COX-2 (Homo sapiens, UniProt P35354).
T1 construct: A 2.0 kb fragment containing the coding region of either human or murine COX-1 or human or murine COX-2; made in house; host or cells: SF9 insect cells (baculovirus, pVL1393)
T1 sequence (P35354 18-604): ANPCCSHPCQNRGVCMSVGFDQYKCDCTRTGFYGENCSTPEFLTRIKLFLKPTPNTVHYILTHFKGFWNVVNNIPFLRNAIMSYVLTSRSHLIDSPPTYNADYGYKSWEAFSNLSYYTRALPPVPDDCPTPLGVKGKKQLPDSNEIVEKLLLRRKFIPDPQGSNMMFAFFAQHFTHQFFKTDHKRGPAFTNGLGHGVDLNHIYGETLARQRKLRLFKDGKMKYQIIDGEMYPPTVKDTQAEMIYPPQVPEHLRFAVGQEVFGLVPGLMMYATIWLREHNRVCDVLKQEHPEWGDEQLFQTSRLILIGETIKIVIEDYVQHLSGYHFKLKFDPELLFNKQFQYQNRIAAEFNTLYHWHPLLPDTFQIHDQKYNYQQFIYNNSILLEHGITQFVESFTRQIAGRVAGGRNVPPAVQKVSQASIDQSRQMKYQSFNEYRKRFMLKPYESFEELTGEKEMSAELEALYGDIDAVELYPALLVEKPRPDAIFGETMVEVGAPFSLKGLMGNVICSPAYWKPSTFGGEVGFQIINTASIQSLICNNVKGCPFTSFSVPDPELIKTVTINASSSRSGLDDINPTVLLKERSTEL
Kind of experiment: Assay for COX-2 activity (PGE2 formed, ELISA). The experiment is classed as biochemical, human or murine. The note with it: human COX-2, standard assay, read-out: hCox-2 IC50. Background: In an ELISA, binding on a coated surface is turned into a signal by an enzyme label.
Description: The COX-2 inhibition activity of the compounds of this invention illustrated in the Examples were determined by the following methods.
A 2.0 kb fragment containing the coding region of either human or murine COX-1 or human or murine COX-2 was cloned into a BamHl site of the baculovirus transfer vector pVL1393 (Invitrogen) to generate the baculovirus transfer vectors for COX-1 and COX-2 in a manner similar to the method of D.R. O'Reilly et al (Baculovirus Expression Vectors: A Laboratory Manual (1992)). Recombinant baculoviruses were isolated by transfecting 4 μg of baculovirus transfer vector DNA into SF9 insect cells (2×10^8) along with 200 ng of linearized baculovirus plasmid DNA by the calcium phosphate method. […] Recombinant viruses were purified by three rounds of plaque purification and high titer (10^7-10^8 pfu/mL) stocks of virus were prepared. For large scale production, SF9 insect cells were infected in 10 liter fermentors (0.5×10^6/mL) with the recombinant baculovirus stock such that the multiplicity of infection was 0.1. After 72 hours the cells were centrifuged and the cell pellet homogenized in Tris/Sucrose (50 mM: 25%, pH 8.0) containing 1% 3-[(3-cholamidopropyl)dimethylammonio]-1-propanesulfonate (CHAPS). The homogenate was centrifuged at 10,000×G for 30 minutes, and the resultant supernatant was stored at −80° C. before being assayed for COX activity.
COX activity was assayed as PGE2 formed/lg protein/time using an ELISA to detect the prostaglandin released. CHAPS-solubilized insect cell membranes containing the appropriate COX enzyme were incubated in a potassium phosphate buffer (50 mM, pH 8.0) containing epinephrine, phenol, and heme with the addition of arachidonic acid (10 μM). Compounds were pre-incubated with the enzyme for 10-20 minutes prior to the addition of arachidonic acid. […] The PGE2 formed was measured by standard ELISA technology (Cayman Chemical).

Experiment [2] deals with T1, COX-2. Kind of experiment: Modified assay for COX-2 activity (PGE2 formed, ELISA). The note with it: human COX-2, replicate tests on separate lines, read-out: hCox-2 Modified IC50. In kind it is biochemical, human or murine.

As a reminder, the IC50 is the concentration needed to halve the response being measured. For `O=C(O)C1=Cc2cc(Cl)c(Oc3ccc4c(c3)OCO4)cc2O[C@H]1C(F)(F)F` (single isomer, unassigned) [Example 958a], the IC50 on COX-2 [1] (replicate tests on separate lines) is 35.8 nM and ≤ 137 nM; on COX-2 [2], 29.3 nM and ≤ 137 nM.

As for `CCCOc1c(Cl)cc(Cl)c2c1OC(C(F)(F)F)C(C(=O)O)=C2` (stereo not shown) [Example 23f, 5,7-dichloro-8-propoxy-2-(trifluoromethyl)-2H-chromene-3-carboxylic acid], the IC50 at COX-2 [1] was more than 500000 nM.

With `Nc1c(Cl)cc(Oc2cccc3c2OC(C(F)(F)F)C(C(=O)O)=C3)c(F)c1Cl` (stereo not shown) [Example 25d, 8-(4-amino-3,5-dichloro-2-fuorophenoxy)-2-(trifluoromethyl)-2H-chromene-3-carboxylic acid], at COX-2 [1], the IC50 was more than 33300 nM.
